{"source": "paper PMC4331650", "about": "(Biochimica et Biophysica Acta, 2014)", "key": {"CLC-K1 without barttin": {"biological_target": "T1, CLC-K1 without barttin (Rattus norvegicus, UniProt Q06393)", "T1 sequence (Q06393 1-687)": "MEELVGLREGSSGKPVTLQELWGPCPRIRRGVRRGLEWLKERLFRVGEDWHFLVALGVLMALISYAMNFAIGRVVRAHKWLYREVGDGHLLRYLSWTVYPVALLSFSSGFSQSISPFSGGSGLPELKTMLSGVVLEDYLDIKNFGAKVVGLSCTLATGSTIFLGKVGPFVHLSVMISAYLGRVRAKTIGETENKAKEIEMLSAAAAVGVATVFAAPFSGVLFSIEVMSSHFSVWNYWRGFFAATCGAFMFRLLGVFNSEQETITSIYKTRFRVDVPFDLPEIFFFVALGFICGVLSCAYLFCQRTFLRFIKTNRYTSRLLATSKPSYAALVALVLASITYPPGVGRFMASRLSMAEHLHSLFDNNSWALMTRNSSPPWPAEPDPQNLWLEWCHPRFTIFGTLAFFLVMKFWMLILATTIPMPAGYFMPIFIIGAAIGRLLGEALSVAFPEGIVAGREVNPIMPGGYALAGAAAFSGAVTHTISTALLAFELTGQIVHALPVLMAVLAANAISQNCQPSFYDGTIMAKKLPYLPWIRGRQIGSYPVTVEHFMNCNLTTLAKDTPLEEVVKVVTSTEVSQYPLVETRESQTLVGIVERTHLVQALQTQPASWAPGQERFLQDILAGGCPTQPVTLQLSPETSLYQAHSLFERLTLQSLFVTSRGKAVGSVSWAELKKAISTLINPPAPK", "test": "NFA effect on WT CLC-K1 without barttin, voltage clamp in Xenopus oocytes", "assay_type": "cell-based"}, "hCLC-Kb": {"tested_on": "hCLC-Kb", "settings": "[NFA]ext up to 2 mM; cited from earlier work"}, "rat CLC-K1": {"tested_on": "rat CLC-K1", "settings": "HEK293 cells; all concentrations tested, from 0.3 to 2000 μM; cited from earlier work"}, "F256A CLC-Ka/barttin": {"biological_target": "T2, F256A CLC-Ka/barttin (Homo sapiens, UniProt P51800, F256A)", "T2 sequence (P51800 1-687 F256A)": "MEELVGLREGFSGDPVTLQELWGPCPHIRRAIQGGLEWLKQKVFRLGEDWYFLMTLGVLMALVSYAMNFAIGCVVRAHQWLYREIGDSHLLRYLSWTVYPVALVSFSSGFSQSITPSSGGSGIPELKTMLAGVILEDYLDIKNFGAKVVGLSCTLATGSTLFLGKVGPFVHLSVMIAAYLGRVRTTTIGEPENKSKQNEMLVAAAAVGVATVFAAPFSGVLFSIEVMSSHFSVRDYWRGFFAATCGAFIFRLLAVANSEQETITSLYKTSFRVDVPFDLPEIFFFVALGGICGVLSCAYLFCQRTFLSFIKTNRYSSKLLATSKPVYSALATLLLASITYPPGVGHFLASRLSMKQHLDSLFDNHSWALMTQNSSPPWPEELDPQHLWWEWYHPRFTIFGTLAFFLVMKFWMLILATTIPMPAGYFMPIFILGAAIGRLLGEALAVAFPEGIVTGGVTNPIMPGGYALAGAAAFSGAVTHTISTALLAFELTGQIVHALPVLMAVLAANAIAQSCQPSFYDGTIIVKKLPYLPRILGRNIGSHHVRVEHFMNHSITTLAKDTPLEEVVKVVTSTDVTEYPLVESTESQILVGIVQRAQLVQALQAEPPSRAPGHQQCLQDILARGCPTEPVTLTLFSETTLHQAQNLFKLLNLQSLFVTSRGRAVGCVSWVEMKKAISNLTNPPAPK", "T2 sequence (Q8WZ55 1-320 partner)": "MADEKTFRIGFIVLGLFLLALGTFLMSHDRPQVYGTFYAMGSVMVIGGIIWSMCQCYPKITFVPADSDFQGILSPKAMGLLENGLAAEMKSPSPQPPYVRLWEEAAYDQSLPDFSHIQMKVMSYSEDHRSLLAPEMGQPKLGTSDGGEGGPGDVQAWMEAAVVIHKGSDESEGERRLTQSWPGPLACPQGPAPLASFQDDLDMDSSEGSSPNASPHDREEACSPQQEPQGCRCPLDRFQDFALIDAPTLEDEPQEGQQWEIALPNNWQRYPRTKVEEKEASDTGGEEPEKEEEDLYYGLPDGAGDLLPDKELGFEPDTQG", "test": "NFA effect on F256A CLC-Ka/barttin, whole-cell patch clamp in HEK293 cells", "assay_type": "cell-based"}, "N257A CLC-K1": {"biological_target": "T3, N257A CLC-K1 (Rattus norvegicus, UniProt Q06393, N257A)", "T3 sequence (Q06393 1-687 N257A)": "T1 sequence (Q06393 1-687) with N257A", "test": "NFA effect on N257A CLC-K1 without barttin, voltage clamp in Xenopus oocytes", "assay_type": "cell-based", "settings": "200 μM NFA"}}, "note": "Positions count from the first letter of the chain named.", "data": [{"molecule": "O=C(O)c1cccnc1Nc1cccc(C(F)(F)F)c1", "note": "[NFA, niflumic acid]", "values": [{"measurement": "currents relative to control conditions", "setting": "CLC-K1 without barttin; 10 μM NFA", "result": "about 80%"}, {"measurement": "currents relative to control conditions", "setting": "CLC-K1 without barttin; 200 μM NFA", "result": "~45", "unit": "%"}, {"measurement": "effect on hCLC-Kb", "setting": "hCLC-Kb", "result": "potentiated"}, {"measurement": "effect of NFA on currents", "setting": "rat CLC-K1", "result": "inhibited"}, {"measurement": "effect of NFA on currents", "setting": "F256A CLC-Ka/barttin; 20 μM NFA", "result": "increased"}, {"measurement": "effect of NFA on currents", "setting": "F256A CLC-Ka/barttin; 500 μM NFA", "result": "inhibited"}, {"measurement": "[NFA]ext up to which potentiation is seen", "setting": "F256A CLC-Ka/barttin; inhibition at higher [NFA]ext", "result": "up to 200 μM"}, {"measurement": "sensitivity to NFA compared with WT", "setting": "N257A CLC-K1", "result": "only weakly more sensitive"}]}]}
